In patent US20160130577A1, “NUCLEOTIDE SEQUENCE MOTIFS DIRECTING NUCLEIC ACID LOCATION TO EXTRACELLULAR VESICLES” (FUNDACIÓN CENTRO NACIONAL DE INVESTIGACIONES …, priority 2012, published 2016):

Key:
[1] = system: sumo-conjugated proteins; test: Western blot of cell extracts for SUMO-1 (sumoylation inhibitor efficiency); type: cell-based, human; conditions: anacardic acid versus DMSO
Method: (§1) FIG. 13. Assessment of sumoylation inhibitor efficiency. (A) Western blot analysis of hnRNPA1 in T cells and their EVs. (B) Representative western blot showing the decrease in sumo-conjugated proteins in the presence of anacardic acid. Cells were incubated with anacardic acid (AA) or DMSO (control condition, CONT) and cell extracts were blotted for SUMO-1. (C) Representative western blot showing no changes in EV secretion and cell death in the presence of anacardic acid. Cells were incubated with anacardic acid (AA) or DMSO (CONT), and EV were purified by ultracentrifugation and blotted for CD81 and cytochrome c.
(§2) To confirm whether the higher molecular weight of EVs hnRNPA2B1 was due to sumoylation, we cultured Jurkat T cells in the presence of the specific sumoylation inhibitor anacardic acid (AA). Briefly, cells were cultured with anacardic acid (100 μM) (Sigma) or 6 DMSO for 4 h at 37° C. Cells were then diluted 1:4 and incubated overnight. EVs and cells were resuspended in buffer 1 for western blotting or hnRNPA2B1 immunoprecipitation (FIG. 13B).

[2] = system: Jurkat T cells; test: Western blot of EVs for CD81 and cytochrome c (EV secretion, cell death); type: cell-based; conditions: anacardic acid versus DMSO
Method: as §1, §2

[3] = system: hnRNPA2B1; test: hnRNPA2B1 IP-qPCR from EV lysates of control or AA-treated cells; type: cell-based, human; conditions: EV lysates from AA-treated versus control cells
Method: as §2

[4] = system: hnRNPA2B1 sumoylation; test: Western blot of hnRNPA2B1 molecular weight in EVs with sumoylation inhibitor; type: cell-based, human; conditions: anacardic acid 100 μM 4 h, then diluted 1:4 overnight; versus DMSO
Method: as §2

[5] = system: Jurkat T cells; test: qPCR of miRNA levels in EVs from control or AA-treated cells; type: cell-based, human; conditions: anacardic acid 100 μM versus DMSO
[6] = molecular target: T1, NUCL (Homo sapiens, UniProt P19338); test: pull-down of EV extracts with biotinylated miRNA-coated streptavidin beads, mass spectrometry; type: binding; conditions: NUCL precipitated from EV extracts of human T lymphoblasts
T1 construct: endogenous in cells; host or cells: extracellular vesicles from primary human T lymphoblasts
Method: (§3) To analyze the molecular mechanism that controls the packaging of miRNAs presenting the motifs of the invention in EVs, a search was performed of the proteins present in EVs and which bind specifically to EVmiRNAs. For this purpose, extracts of isolated EVs from human T lymphoblasts were incubated in the presence of streptavidin beads coated with biotinylated EVmiRNA miR-198, or with biotinylated CLmiRNA miR-17. The analysis of EVs-coupled beads was performed by FACS. Briefly, Evs were obtained by ultracentrifugation and sucrose gradient flotation, resuspended in PBS and coupled to 4 μm aldehyde-sulfate beads (Invitrogen) overnight at room temperature in rotation. Beads were washed and blocked for 60 min at room temperature in 4% BSA in PBS. For intracellular staining, bead-bound Evs were permeabilized and fixed for 5 min at room temperature with 0.2% TX, 2% FA in PBS. Beads were incubated with antihnRNPA2B1 (Santa Cruz) or anti-CD81 (5A6, Santa Cruz) for 1 h at 4° C., washed and incubated with Alexa-488-goat-anti-mouse IgG (Invitrogen) for 30 min. Beads were acquired on a FACSCalibur (BD) and data were analyzed with FlowJo software (Tree Star). Negative controls were obtained with EV-coupled beads incubated with the secondary antibody. The proteins collected were identified by high performance mass spectrometry. As negative controls, uncoated or poly-A-coated streptavidin beads were used. Briefly, proteins were in-gel digested using a previously-described protocol. Briefly, 75 μl of beads were suspended in 25 μl sample buffer and loaded in 2.8-cm-wide wells of an SDS-PAGE gel. The run was stopped as soon as the front entered 3 mm into the resolving gel; the protein band was visualized by Coomassie staining, excised and digested overnight at 37° C. with 60 ng/μl trypsin at 5:1 protein:trypsin (w/w) ratio in 50 mM ammonium bicarbonate, pH 8.8 containing 10% ACN. The resulting tryptic peptides were extracted by 1 h incubation in 12 mM ammonium bicarbonate, pH 8.8. TFA was added to a final concentration of 1% and the peptides were finally desalted onto C18 Oasis cartridges and dried down. Peptide identification by mass spectrometry was performed as described. Briefly, the peptides were resuspended and injected onto a C-18 reversed phase (RP) nano-column (75 μm 2 I.D.×25 cm, Acclaim PepMap100, Thermo Scientific) and analyzed in a continuous acetonitrile gradient consisting of 0-43% B in 90 min, 50-90% B in 1 min (B=90% acetonitrile, 0.5% acetic acid). A flow rate of ca. 300 nL/min was used to elute peptides from the RP nano-column to an emitter nanospray needle for real time ionization and peptide fragmentation on an LTQ XP Orbitrap mass spectrometer (Thermo Fisher, San José, Calif., USA). An enhanced FT spectrum (30.000 resolution) followed by MS/MS spectra from most intense ten parent ions were performed along the chromatographic run (130 min). Dynamic exclusion was set at 30 s. The MS/MS raw files were searched against the Human Swissprot database (Uniprot release 14.0, 19929 sequence entries for human) supplemented with porcine trypsin and bacterial Streptavidin. SEQUEST results were validated using the probability ratio method and false discovery rates calculated using the refined method. Peptide and scan counting was performed assuming as positive events those with a FDR equal to or lower than 5%.

[7] = molecular target: T2, HNRPU (Homo sapiens, UniProt Q00839); test: as above; type: binding; conditions: HNRPU precipitated from EV extracts of human T lymphoblasts
T2 construct: endogenous in cells; host or cells: extracellular vesicles from primary human T lymphoblasts
Method: as §3

[8] = molecular target: T3, hnRNPA1 (Homo sapiens, UniProt P09651); test: as above; type: binding
T3 construct: endogenous in cells; host or cells: extracellular vesicles from primary human T lymphoblasts
Method: as §3

[9] = molecular target: T4, RS4X (Homo sapiens, UniProt P62701); test: as above; type: binding; conditions: RS4X precipitated from EV extracts of human T lymphoblasts
T4 construct: endogenous in cells; host or cells: extracellular vesicles from primary human T lymphoblasts
Method: as §3

[10] = molecular target: T5, RS3 (Homo sapiens, UniProt P23396); test: as above; type: binding; conditions: RS3 precipitated from EV extracts of human T lymphoblasts
T5 construct: endogenous in cells; host or cells: extracellular vesicles from primary human T lymphoblasts
Method: as §3

[11] = molecular target: T6, HNRPC (Homo sapiens, UniProt P07910); test: as above; type: binding; conditions: HNRPC precipitated from EV extracts of human T lymphoblasts
T6 construct: endogenous in cells; host or cells: extracellular vesicles from primary human T lymphoblasts
Method: as §3

[12] = system: hnRNPA2B1; test: as above; type: binding, human
Method: To analyze the molecular mechanism that controls the packaging of miRNAs presenting the motifs of the invention in EVs, a search was performed of the proteins present in EVs and which bind specifically to EVmiRNAs. For this purpose, extracts of isolated EVs from human T lymphoblasts were incubated in the presence of streptavidin beads coated with biotinylated EVmiRNA miR-198, or with biotinylated CLmiRNA miR-17. The analysis of EVs-coupled beads was performed by FACS. Briefly, Evs were obtained by ultracentrifugation and sucrose gradient flotation, resuspended in PBS and coupled to 4 μm aldehyde-sulfate beads (Invitrogen) overnight at room temperature in rotation. Beads were washed and blocked for 60 min at room temperature in 4% BSA in PBS. For intracellular staining, bead-bound Evs were permeabilized and fixed for 5 min at room temperature with 0.2% TX, 2% FA in PBS. […] Beads were acquired on a FACSCalibur (BD) and data were analyzed with FlowJo software (Tree Star). […] Briefly, the peptides were resuspended and injected onto a C-18 reversed phase (RP) nano-column (75 μm 2 I.D.×25 cm, Acclaim PepMap100, Thermo Scientific) and analyzed in a continuous acetonitrile gradient consisting of 0-43% B in 90 min, 50-90% B in 1 min (B=90% acetonitrile, 0.5% acetic acid). […] SEQUEST results were validated using the probability ratio method and false discovery rates calculated using the refined method. […]
Target sequence in this assay (P22626 15-353 limits assumed): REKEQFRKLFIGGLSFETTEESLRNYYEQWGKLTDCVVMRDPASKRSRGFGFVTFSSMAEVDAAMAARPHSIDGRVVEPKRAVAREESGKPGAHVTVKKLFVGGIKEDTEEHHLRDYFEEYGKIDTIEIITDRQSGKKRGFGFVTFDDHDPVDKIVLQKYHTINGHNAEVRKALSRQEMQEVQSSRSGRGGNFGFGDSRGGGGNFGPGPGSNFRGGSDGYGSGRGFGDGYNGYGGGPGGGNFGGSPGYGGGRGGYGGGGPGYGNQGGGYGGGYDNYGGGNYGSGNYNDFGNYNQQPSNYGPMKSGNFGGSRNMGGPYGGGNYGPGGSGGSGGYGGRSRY

T3 sequence (P09651 whole entry): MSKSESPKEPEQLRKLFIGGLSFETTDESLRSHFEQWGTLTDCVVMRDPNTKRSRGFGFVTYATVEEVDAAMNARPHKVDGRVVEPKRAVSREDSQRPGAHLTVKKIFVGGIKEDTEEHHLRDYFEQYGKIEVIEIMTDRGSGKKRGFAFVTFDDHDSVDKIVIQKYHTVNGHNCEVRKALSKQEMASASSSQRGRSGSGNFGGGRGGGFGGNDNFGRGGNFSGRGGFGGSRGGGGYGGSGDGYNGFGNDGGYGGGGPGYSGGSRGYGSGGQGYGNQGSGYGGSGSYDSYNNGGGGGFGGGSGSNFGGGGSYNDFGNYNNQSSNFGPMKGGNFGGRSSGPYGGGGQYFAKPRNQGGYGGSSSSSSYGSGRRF
T1 sequence (P19338 whole entry): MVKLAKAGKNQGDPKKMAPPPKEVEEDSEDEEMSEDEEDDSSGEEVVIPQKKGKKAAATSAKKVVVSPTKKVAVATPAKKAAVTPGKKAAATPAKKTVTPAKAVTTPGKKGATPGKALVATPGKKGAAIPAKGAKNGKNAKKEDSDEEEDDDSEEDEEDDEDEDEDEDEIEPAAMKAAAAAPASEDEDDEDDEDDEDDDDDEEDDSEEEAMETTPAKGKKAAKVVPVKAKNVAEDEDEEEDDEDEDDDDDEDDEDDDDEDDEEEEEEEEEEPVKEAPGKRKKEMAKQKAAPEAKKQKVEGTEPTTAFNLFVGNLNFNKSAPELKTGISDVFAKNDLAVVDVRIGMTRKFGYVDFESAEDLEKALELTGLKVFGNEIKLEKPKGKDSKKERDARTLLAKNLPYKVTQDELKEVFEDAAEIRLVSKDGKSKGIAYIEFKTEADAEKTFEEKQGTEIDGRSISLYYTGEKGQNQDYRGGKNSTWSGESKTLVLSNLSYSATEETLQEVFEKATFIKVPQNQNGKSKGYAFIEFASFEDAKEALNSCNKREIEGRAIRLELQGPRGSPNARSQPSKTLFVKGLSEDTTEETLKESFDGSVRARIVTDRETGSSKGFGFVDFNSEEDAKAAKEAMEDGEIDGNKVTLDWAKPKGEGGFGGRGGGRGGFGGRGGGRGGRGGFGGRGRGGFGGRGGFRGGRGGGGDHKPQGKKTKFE
T6 sequence (P07910 whole entry): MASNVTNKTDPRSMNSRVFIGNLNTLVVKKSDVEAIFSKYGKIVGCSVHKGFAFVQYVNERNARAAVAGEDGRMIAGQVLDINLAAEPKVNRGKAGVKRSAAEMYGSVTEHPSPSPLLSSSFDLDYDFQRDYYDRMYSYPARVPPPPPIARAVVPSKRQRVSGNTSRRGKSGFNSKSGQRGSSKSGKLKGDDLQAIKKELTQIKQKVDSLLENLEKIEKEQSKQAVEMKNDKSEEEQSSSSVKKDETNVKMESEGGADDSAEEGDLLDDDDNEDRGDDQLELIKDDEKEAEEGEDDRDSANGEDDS
T2 sequence (Q00839 whole entry): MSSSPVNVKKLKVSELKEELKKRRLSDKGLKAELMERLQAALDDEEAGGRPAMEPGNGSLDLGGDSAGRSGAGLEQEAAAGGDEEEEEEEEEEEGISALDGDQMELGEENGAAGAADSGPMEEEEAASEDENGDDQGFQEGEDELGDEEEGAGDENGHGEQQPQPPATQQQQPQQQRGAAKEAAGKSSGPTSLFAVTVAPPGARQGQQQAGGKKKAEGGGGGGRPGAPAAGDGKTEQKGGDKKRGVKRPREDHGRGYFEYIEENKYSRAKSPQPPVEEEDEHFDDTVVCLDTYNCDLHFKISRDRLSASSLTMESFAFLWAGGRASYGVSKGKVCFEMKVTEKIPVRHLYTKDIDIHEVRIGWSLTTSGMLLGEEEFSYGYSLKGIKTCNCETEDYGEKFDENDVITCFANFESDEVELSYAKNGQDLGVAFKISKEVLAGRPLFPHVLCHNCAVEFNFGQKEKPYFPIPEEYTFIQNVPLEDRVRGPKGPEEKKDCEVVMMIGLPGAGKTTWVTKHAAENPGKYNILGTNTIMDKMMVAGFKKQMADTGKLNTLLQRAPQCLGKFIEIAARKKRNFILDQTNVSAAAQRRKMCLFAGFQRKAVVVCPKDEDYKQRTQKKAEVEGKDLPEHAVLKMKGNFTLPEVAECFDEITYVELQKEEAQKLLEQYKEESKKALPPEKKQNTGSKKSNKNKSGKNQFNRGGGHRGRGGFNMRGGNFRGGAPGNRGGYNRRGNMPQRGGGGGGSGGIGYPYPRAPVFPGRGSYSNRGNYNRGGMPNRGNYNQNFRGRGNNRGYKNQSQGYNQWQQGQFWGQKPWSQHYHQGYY

Row | Compound | sumo-conjugated proteins (SUMO-1 blot) [1] | EV secretion (CD81 blot) [2] | cell death (cytochrome c blot) [2] | miR-198 bound to hnRNPA2B1 (IP-qPCR) [3] | low-molecular weight hnRNPA2B1 band in EVs [4] | levels of miR-17 in EVs [5] | levels of miR-18 in EVs [5] | levels of miR-198 in EVs [5] | Number of peptides identified by mass spectrometry [6] | Number of peptides identified by mass spectrometry [7] | Number of peptides identified by mass spectrometry ([8]; hnRNPA1 precipitated from EV extracts of human T lymphoblasts) | binding of hnRNPA1 (in words) ([8]; pull-down from EV extracts) | Number of peptides identified by mass spectrometry [9] | Number of peptides identified by mass spectrometry [10] | Number of peptides identified by mass spectrometry [11] | Number of peptides identified by mass spectrometry ([12]; hnRNPA2B1 precipitated from EV extracts of human T lymphoblasts) | binding of hnRNPA2B1 (in words) ([12]; pull-down from EV extracts)
1 | CCCCCCCCCCCCCCCc1cccc(O)c1C(=O)O [anacardic acid] | decrease | no changes | no changes | decreased binding | could be readily detected | did not change | did not change | reduced | – | – | – | – | – | – | – | – | –
2 | poly-A | – | – | – | – | – | – | – | – | 8 | 0 | 0 | no binding | 0 | 0 | 0 | 0 | no binding
